The source of these data is patent US20240158446A1, “CYCLIC COMPOUND HAVING SELECTIVE INHIBITORY ACTION ON KRAS OVER HRAS AND NRAS” (CHUGAI SEIYAKU KABUSHIKI KAISHA, priority 2021, published 2024).

The target in experiment [1] is GDP-bound KRAS wild-type protein (Homo sapiens, UniProt P01116). In words: Binding to KRAS by surface plasmon resonance (SPR), Single Cycle Kinetics. The conditions noted are these: SPR Single Cycle Kinetics, GDP-bound KRAS wild-type protein, 1:1 binding model; read-out: KRAS KD.
GDP-bound KRAS wild-type protein, sequence (P01116 whole entry): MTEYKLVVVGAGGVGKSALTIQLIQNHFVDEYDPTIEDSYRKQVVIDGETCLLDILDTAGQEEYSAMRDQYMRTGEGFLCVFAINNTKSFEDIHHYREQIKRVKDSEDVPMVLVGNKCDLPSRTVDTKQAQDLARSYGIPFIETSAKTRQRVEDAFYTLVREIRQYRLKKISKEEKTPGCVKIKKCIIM
The target in experiment [2] is GDP-bound NRAS wild-type protein (Homo sapiens, UniProt P01111). In words: Binding to NRAS by surface plasmon resonance (SPR), Single Cycle Kinetics. Particulars: SPR KD ratio NRAS/KRAS, class symbols. Background: Surface plasmon resonance follows binding to a sensor surface in real time, without labels.
GDP-bound NRAS wild-type protein, sequence (P01111 whole entry): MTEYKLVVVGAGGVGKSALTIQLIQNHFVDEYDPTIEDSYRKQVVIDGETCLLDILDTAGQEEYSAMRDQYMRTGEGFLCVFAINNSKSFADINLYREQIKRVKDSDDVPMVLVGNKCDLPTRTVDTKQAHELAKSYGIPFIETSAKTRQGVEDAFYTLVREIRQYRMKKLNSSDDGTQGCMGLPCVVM
Experiment [3] addresses GDP-bound HRAS wild-type protein (Homo sapiens, UniProt P01112). The experiment in a line: Binding to HRAS by surface plasmon resonance (SPR), Single Cycle Kinetics. The conditions noted are these: SPR KD ratio HRAS/KRAS, class symbols.

By Kd is commonly meant the free concentration of one partner at which half of the binding sites on the other are occupied at equilibrium, for simple one-to-one binding.

GDP-bound HRAS wild-type protein, sequence (P01112 whole entry): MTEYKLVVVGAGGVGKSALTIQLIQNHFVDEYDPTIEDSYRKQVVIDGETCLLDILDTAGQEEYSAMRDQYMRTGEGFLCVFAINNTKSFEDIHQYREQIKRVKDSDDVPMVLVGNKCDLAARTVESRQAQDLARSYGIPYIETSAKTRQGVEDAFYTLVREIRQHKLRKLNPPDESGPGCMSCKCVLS

On to `CCC[C@H]1C(=O)N[C@@H]([C@@H](C)CC)C(=O)N(C)CC(=O)N(C)[C@H]2C/C=C\CCN(C2=O)[C@@H](Cc2ccc(C(F)(F)F)cc2)C(=O)N(C)CC(=O)N[C@@H](CCc2ccc3sc(F)c(C)c3c2)C(=O)N2C[C@H](OCC)C[C@H]2C(=O)NC2(CC(C)(C)C2)C(=O)N(C)[C@@H](C(CC)CC)C(=O)N(C)[C@H](C(=O)N(C)C)CC(=O)N1C` [PP2892], for which the dissociation constant Kd in experiment [1] was 0.28 nM. In addition, the “NRAS/KRAS (ratio of KD value with respect to GDP-bound NRAS wild-type protein to KD value with respect to KRAS)” value in experiment [2] was “A (a compound having 10 or more and less than 20 is denoted as A)”. Moreover, the “HRAS/KRAS (ratio of KD value with respect to GDP-bound HRAS wild-type protein to KD value with respect to KRAS)” value in experiment [3] was “A (a compound having 10 or more and less than 20 is denoted as A)”.
In the case of `CCC[C@H]1C(=O)N[C@@H]([C@@H](C)CC)C(=O)N(C)CC(=O)N(C)[C@H]2C/C=C\CCN(C2=O)[C@@H](Cc2ccc(C(F)(F)F)cc2)C(=O)N(C)CC(=O)N[C@@H](CCc2ccc3c(C)c(C)n(C)c3c2)C(=O)N2C[C@H](OCC)C[C@H]2C(=O)NC2(CC(C)(C)C2)C(=O)N(C)[C@@H](C2CCCC2)C(=O)N(C)[C@H](C(=O)N(C)C)CC(=O)N1C` [PP2893], the Kd in experiment [1] amounted to 2 nM. In experiment [2], the “NRAS/KRAS (ratio of KD value with respect to GDP-bound NRAS wild-type protein to KD value with respect to KRAS)” value was “A (a compound having 10 or more and less than 20 is denoted as A)”. Further, the “HRAS/KRAS (ratio of KD value with respect to GDP-bound HRAS wild-type protein to KD value with respect to KRAS)” value in experiment [3] was “A (a compound having 10 or more and less than 20 is denoted as A)”.
As to `CCC[C@H]1C(=O)N[C@@H]([C@@H](C)CC)C(=O)N(C)CC(=O)N(C)[C@H]2C/C=C\CCN(C2=O)[C@@H](Cc2ccc(C)cc2)C(=O)N(C)CC(=O)N[C@@H](CCc2ccc3sc(F)c(C)c3c2)C(=O)N2C[C@H](OCC)C[C@H]2C(=O)NC2(CC(C)(C)C2)C(=O)N(C)[C@@H](C(CC)CC)C(=O)N(C)[C@H](C(=O)N(C)C)CC(=O)N1C` [PP2894], the Kd in experiment [1] was determined as 0.31 nM. Moreover, the “NRAS/KRAS (ratio of KD value with respect to GDP-bound NRAS wild-type protein to KD value with respect to KRAS)” value in experiment [2] is reported as “AA (a compound having 20 or more is denoted as AA)”. The “HRAS/KRAS (ratio of KD value with respect to GDP-bound HRAS wild-type protein to KD value with respect to KRAS)” value in experiment [3] was “A (a compound having 10 or more and less than 20 is denoted as A)”.
For the compound `CCC[C@H]1C(=O)N[C@@H]([C@@H](C)CC)C(=O)N(C)CC(=O)N(C)[C@H]2C/C=C\CCN(C2=O)[C@@H](Cc2ccc(C)cc2)C(=O)N(C)CC(=O)N[C@@H](CCc2ccc3c(C)c(C)n(C)c3c2)C(=O)N2C[C@H](OCC)C[C@H]2C(=O)NC2(CC(C)(C)C2)C(=O)N(C)[C@@H](C2CCCC2)C(=O)N(C)[C@H](C(=O)N(C)C)CC(=O)N1C` [PP2895], the Kd in experiment [1] was found to be 3.2 nM. Moreover, the “NRAS/KRAS (ratio of KD value with respect to GDP-bound NRAS wild-type protein to KD value with respect to KRAS)” value in experiment [2] was “A (a compound having 10 or more and less than 20 is denoted as A)”. The “HRAS/KRAS (ratio of KD value with respect to GDP-bound HRAS wild-type protein to KD value with respect to KRAS)” value in experiment [3] was “A (a compound having 10 or more and less than 20 is denoted as A)”.
For the compound `CCC[C@H]1C(=O)N[C@@H]([C@@H](C)CC)C(=O)N(C)CC(=O)N(C)[C@H]2C/C=C\CCN(C2=O)[C@@H](Cc2ccc(C(F)(F)F)cc2)C(=O)N(C)CC(=O)N[C@@H](CCc2ccc3c(C)cn(C)c3c2)C(=O)N2C[C@H](OCC)C[C@H]2C(=O)NC2(CC(C)(C)C2)C(=O)N(C)[C@@H](C2CCCC2)C(=O)N(C)[C@H](C(=O)N(C)C)CC(=O)N1C` [PP2897], the Kd in experiment [1] came to 0.56 nM. Also, in experiment [2], the “NRAS/KRAS (ratio of KD value with respect to GDP-bound NRAS wild-type protein to KD value with respect to KRAS)” value was “A (a compound having 10 or more and less than 20 is denoted as A)”. In addition, the “HRAS/KRAS (ratio of KD value with respect to GDP-bound HRAS wild-type protein to KD value with respect to KRAS)” value in experiment [3] was “B (a compound having 3 or more and less than 10 is denoted as B)”.
Regarding `CCC[C@H]1C(=O)N[C@@H]([C@@H](C)CC)C(=O)N(C)CC(=O)N(C)[C@H]2C/C=C\CCN(C2=O)[C@@H](Cc2ccc(C)cc2)C(=O)N(C)CC(=O)N[C@@H](CCc2cc(Cl)c3c(ccn3C)c2)C(=O)N2C[C@H](OCC)C[C@H]2C(=O)NC2(CC(C)(C)C2)C(=O)N(C)[C@@H](C(CC)CC)C(=O)N(C)[C@H](C(=O)N(C)C)CC(=O)N1C` [PP2898], the Kd in experiment [1] was 4.8 nM. The “NRAS/KRAS (ratio of KD value with respect to GDP-bound NRAS wild-type protein to KD value with respect to KRAS)” value in experiment [2] is “A (a compound having 10 or more and less than 20 is denoted as A)”. The “HRAS/KRAS (ratio of KD value with respect to GDP-bound HRAS wild-type protein to KD value with respect to KRAS)” value in experiment [3] was “A (a compound having 10 or more and less than 20 is denoted as A)”.
In the case of `CCC[C@H]1C(=O)N[C@@H]([C@@H](C)CC)C(=O)N(C)CC(=O)N(C)[C@H]2C/C=C\CCN(C2=O)[C@@H](Cc2ccc(C)cc2)C(=O)N(C)CC(=O)N[C@@H](CCc2ccc3c(C)cn(C)c3c2)C(=O)N2C[C@H](OCC)C[C@H]2C(=O)NC2(CC(C)(C)C2)C(=O)N(C)[C@@H](C2CCCC2)C(=O)N(C)[C@H](C(=O)N(C)C)CC(=O)N1C` [PP2899], in experiment [1], the Kd came out at 0.85 nM. Besides, the “NRAS/KRAS (ratio of KD value with respect to GDP-bound NRAS wild-type protein to KD value with respect to KRAS)” value in experiment [2] was “A (a compound having 10 or more and less than 20 is denoted as A)”. The “HRAS/KRAS (ratio of KD value with respect to GDP-bound HRAS wild-type protein to KD value with respect to KRAS)” value in experiment [3] was “B (a compound having 3 or more and less than 10 is denoted as B)”.
In the case of `CCC[C@H]1C(=O)N[C@@H]([C@@H](C)CC)C(=O)N(C)CC(=O)N(C)[C@H]2C/C=C\CCN(C2=O)[C@@H](Cc2ccc(C(F)(F)F)cc2)C(=O)N(C)CC(=O)N[C@@H](CCc2ccc3sc(C)c(C)c3c2)C(=O)N2C[C@H](OCC)C[C@H]2C(=O)NC2(CC(C)(C)C2)C(=O)N(C)[C@@H](C(CC)CC)C(=O)N(C)[C@H](C(=O)N(C)C)CC(=O)N1C` [PP2900], the Kd in experiment [1] worked out at 0.44 nM. Also, the “NRAS/KRAS (ratio of KD value with respect to GDP-bound NRAS wild-type protein to KD value with respect to KRAS)” value in experiment [2] is listed as “AA (a compound having 20 or more is denoted as AA)”. For the same compound, the “HRAS/KRAS (ratio of KD value with respect to GDP-bound HRAS wild-type protein to KD value with respect to KRAS)” value in experiment [3] is “A (a compound having 10 or more and less than 20 is denoted as A)”.
As for `CCC[C@H]1C(=O)N[C@@H]([C@@H](C)CC)C(=O)N(C)CC(=O)N(C)[C@H]2C/C=C\CCN(C2=O)[C@@H](Cc2ccc(C(F)(F)F)cc2)C(=O)N(C)CC(=O)N[C@@H](CCc2ccc3ccn(C)c3c2)C(=O)N2C[C@H](OCC)C[C@H]2C(=O)NC2(CC(C)(C)C2)C(=O)N(C)[C@@H](C2CCCC2)C(=O)N(C)[C@H](C(=O)N(C)C)CC(=O)N1C` [PP2901], in experiment [1], the Kd is 3.1 nM. The “NRAS/KRAS (ratio of KD value with respect to GDP-bound NRAS wild-type protein to KD value with respect to KRAS)” value in experiment [2] is “A (a compound having 10 or more and less than 20 is denoted as A)”. Moreover, the “HRAS/KRAS (ratio of KD value with respect to GDP-bound HRAS wild-type protein to KD value with respect to KRAS)” value in experiment [3] is “A (a compound having 10 or more and less than 20 is denoted as A)”.
Regarding `CCC[C@H]1C(=O)N[C@@H]([C@@H](C)CC)C(=O)N(C)CC(=O)N(C)[C@H]2C/C=C\CCN(C2=O)[C@@H](Cc2ccc(C)cc2)C(=O)N(C)CC(=O)N[C@@H](CCc2ccc3sc(C)c(C)c3c2)C(=O)N2C[C@H](OCC)C[C@H]2C(=O)NC2(CC(C)(C)C2)C(=O)N(C)[C@@H](C(CC)CC)C(=O)N(C)[C@H](C(=O)N(C)C)CC(=O)N1C` [PP2902], the Kd in experiment [1] is 0.71 nM. Further, in experiment [2], the “NRAS/KRAS (ratio of KD value with respect to GDP-bound NRAS wild-type protein to KD value with respect to KRAS)” value is “AA (a compound having 20 or more is denoted as AA)”. Further, in experiment [3], the “HRAS/KRAS (ratio of KD value with respect to GDP-bound HRAS wild-type protein to KD value with respect to KRAS)” value is “A (a compound having 10 or more and less than 20 is denoted as A)”.
